Source: patent US20250092056A1, “URACIL DERIVATIVES HAVING VIRUS REPLICATION INHIBITORY ACTIVITY AND PHARMACEUTICAL COMPOSITION COMPRISING THE SAME” (Shionogi & Co., Ltd., priority 2022, published 2025)
Read-outs that look alike come from different tables or passages of the source.

How the values were obtained:
[1] = test system: SARS-CoV-2; assay: Cytopathic effect (CPE) suppression effect confirmation test using HEK293T/ACE2-TMPRSS2 cells; format: cell-based; conditions: Severe acute respiratory syndrome coronavirus 2, HEK-293T
[2] = target: Recombinant SARS-CoV-2 3CL Protease (Severe acute respiratory syndrome coronavirus 2 (2019-nCoV) (SARS-CoV-2), UniProt P0DTD1); assay: biochemical; format: biochemical; conditions: 50% SARS-CoV-2 3CL protease inhibitory concentration; read-out: IC50
[3] = 50% SARS-CoV-2 infected cell death inhibitory concentration, HEK293T/ACE2-TMPRSS2 cells, read-out: EC50
[4] = 72 h, HEK293T/ACE2-TMPRSS2 cells, CPE suppression, CellTiter-Glo 2.0 after 3 days culture, read-out: EC50 (50% SARS-CoV-2 infected cell death inhibitory concentration), class
[5] = 72 h, read-out: EC50 (50% SARS-CoV-2 infected cell death inhibitory concentration), HEK293T/ACE2-TMPRSS2 cells, CPE suppression, CellTiter-Glo 2.0 after 3 days culture
[6] = 72 h, read-out: EC50 (50% SARS-CoV-2 infected cell death inhibitory concentration), class, HEK293T/ACE2-TMPRSS2 cells, CPE suppression, CellTiter-Glo 2.0 after 3 days culture

Row | Compound | EC50 [1, 3] | IC50 [2] | EC50 [1, 4] | EC50 [1, 5] | EC50 [1, 6]
1 | Cc1cc(-n2c(=O)c(-c3ccc(F)c(Cl)c3)c(-c3ccc(C(F)F)cc3)n(CC#N)c2=O)cc(=O)[nH]1 [Compound I-220] | 100 to 1000 nM | < 10 nM | – | – | –
2 | N#CCn1c(N2CCC(C(F)F)CC2)c(-c2ccc(F)c(Cl)c2)c(=O)n(-c2cncc(C#N)c2)c1=O [Compound I-404] | < 100 nM | < 10 nM | – | – | –
3 | N#CCn1c(N2C[C@@H]3C[C@H]2CO3)c(-c2cc(F)c(F)c(C#N)c2)c(=O)n(-c2cncc(Cl)c2)c1=O [Compound I-370] | < 100 nM | < 10 nM | – | – | –
4 | N#CCn1c(N2CC(O)C2)c(-c2ccc(F)c(F)c2)c(=O)n(-c2cncc(Cl)c2)c1=O [Compound I-322] | < 100 nM | < 10 nM | – | – | –
5 | N#CCn1c(N2CC(OC(F)F)C2)c(-c2cc(F)c(F)c(C#N)c2)c(=O)n(-c2cncc(Cl)c2)c1=O [Compound I-369] | < 100 nM | < 10 nM | – | – | –
6 | Cc1cc(-n2c(=O)c(-c3ccc(F)c(Cl)c3)c(N3CCC(C)(C)CC3)n(CC#N)c2=O)cc(=O)[nH]1 [Compound I-170] | – | 10 to 100 nM | < 100 nM | – | –
7 | N#CCn1c(N2CCC2)c(-c2ccc(F)c(Cl)c2)c(=O)n(-c2cncc(Cl)c2)c1=O [Compound I-251] | < 100 nM | < 10 nM | – | – | –
8 | N#CCn1c(-c2cc3ccccc3s2)c(Sc2cc(F)c(F)c(F)c2)c(=O)n(-c2cncc(Cl)c2)c1=O [Compound I-168] | – | 10 to 100 nM | < 100 nM | – | –
9 | Cc1cncc(-n2c(=O)c(Cc3cc(F)c(F)c(F)c3)c(N3CCC(C#N)C3)n(CC#N)c2=O)c1 (racemic) [Compound I-092] | – | 10 to 100 nM | < 100 nM | – | –
10 | N#CCn1c(N2Cc3ccccc3C2)c(Sc2cc(F)c(F)c(F)c2)c(=O)n(-c2cncc(Cl)c2)c1=O [Compound I-167] | – | 49 nM | – | 26.3 nM | –
11 | N#CCn1c(N2CC(O)(c3ncccn3)C2)c(-c2ccc(F)c(Cl)c2)c(=O)n(-c2cncc(OC(F)F)n2)c1=O [Compound I-378] | < 100 nM | < 10 nM | – | – | –
12 | CC(C)OC1CN(c2c(-c3ccc(F)c(Cl)c3)c(=O)n(-c3cncc(Cl)c3)c(=O)n2CC#N)C1 [Compound I-084] | – | < 10 nM | – | – | < 100 nM
13 | C[C@](O)(CCc1c(-c2ccc(F)c(Cl)c2)c(=O)n(-c2cncc(Cl)c2)c(=O)n1CC#N)C(F)F (single isomer, unassigned) [Compound I-392] | < 100 nM | < 10 nM | – | – | –
14 | N#CCn1c(N2CC3(CCOC3)C2)c(Cc2cc(F)c(F)c(F)c2)c(=O)n(-c2cnc3cnccn23)c1=O [Compound I-127] | – | > 100 nM | – | – | 1000 to 5000 nM
15 | Cc1cncc(-n2c(=O)c(Cc3cc(F)c(F)c(F)c3)c(N3Cc4cn[nH]c4C3)n(CC#N)c2=O)c1 [Compound I-204] | – | < 10 nM | – | – | < 100 nM
16 | N#CCn1c(N2CC[C@@](O)(c3ccccc3)C2)c(-c2ccc(F)c(Cl)c2)c(=O)n(-c2cncc(Cl)c2)c1=O (single isomer, unassigned) [Compound I-240] | < 100 nM | < 10 nM | – | – | –
17 | Cc1cncc(-n2c(=O)c(-c3ccc(F)c(Cl)c3)c(C3=CC4(CCOCC4)C3)n(CC#N)c2=O)c1 [Compound I-297] | < 100 nM | < 10 nM | – | – | –
18 | Cc1cncc(-n2c(=O)c(-c3ccc(F)c(Cl)c3)c(N3CCC4(CCNC4=O)CC3)n(CC#N)c2=O)c1 [Compound I-044] | – | < 10 nM | – | – | 100 to 1000 nM
19 | N#CCn1c(Cl)c(-c2ccc(F)c(Cl)c2)c(=O)n(-c2cncc(Cl)c2)c1=O [Compound I-055] | – | 10 to 100 nM | 100 to 1000 nM | – | –
20 | Cc1cnnc(-n2c(=O)c(Cc3cc(F)c(F)c(F)c3)c(N3CC4(CCOC4)C3)n(CC#N)c2=O)c1 [Compound I-036] | – | > 100 nM | – | – | 100 to 1000 nM
21 | Cc1cncc(-n2c(=O)c(Cc3cc(F)c(F)c(F)c3)c(/C=C/CO)n(CC#N)c2=O)c1 [Compound I-047] | – | > 100 nM | – | – | 100 to 1000 nM
22 | Cc1cncc(-n2c(=O)c(-c3ccc(F)c(Cl)c3)c(C3=CCOCC3)n(CC#N)c2=O)c1 [Compound I-211] | < 100 nM | < 10 nM | – | – | –
23 | CCCCc1c(N2CC3(CCOC3)C2)n(CC#N)c(=O)n(-c2cncc(Cl)c2)c1=O [Compound I-284] | < 100 nM | 10 to 100 nM | – | – | –
24 | N#CCn1c(N2CCC(F)(F)CC2)c(-c2cccc(Cl)c2)c(=O)n(-c2cncc(Cl)c2)c1=O [Compound I-174] | – | < 10 nM | – | – | < 100 nM
25 | N#CCn1c(-c2ccc(CO)nc2)c(-c2ccc(F)c(Cl)c2)c(=O)n(-c2cncc(Cl)c2)c1=O [Compound I-380] | < 100 nM | < 10 nM | – | – | –

Row | Compound | EC50 [1, 3] | IC50 [2] | EC50 [1, 4] | EC50 [1, 5] | EC50 [1, 6]
26 | C[C@@]1(O)CCN(c2c(-c3ccc(F)c(Cl)c3)c(=O)n(-c3cncc(Cl)c3)c(=O)n2CC#N)C1 (single isomer, unassigned) [Compound I-294] | < 100 nM | < 10 nM | – | – | –
27 | Cc1cncc(-n2c(=O)c(Cc3cc(F)c(F)c(F)c3)c(-c3ccc(C)c(C)c3)n(C(C#N)C(=O)O)c2=O)c1 (racemic) [Compound I-056] | – | 10 to 100 nM | < 100 nM | – | –
28 | N#CCn1c(N2CC3(C2)CC(F)(F)C3)c(-c2ccc(F)c(Cl)c2)c(=O)n(-c2cncc(OCF)n2)c1=O [Compound I-353] | < 100 nM | < 10 nM | – | – | –
29 | CC(C)=Cc1c(-c2ccc(F)c(Cl)c2)c(=O)n(-c2cncc(Cl)c2)c(=O)n1CC#N [Compound I-301] | < 100 nM | < 10 nM | – | – | –
30 | N#CCn1c(N2C[C@@H]3[C@@H](O)[C@@H]3C2)c(-c2ccc(F)c(Cl)c2)c(=O)n(-c2cncc(Cl)c2)c1=O [Compound I-082] | – | < 10 nM | – | – | < 100 nM
31 | Cc1cncc(-n2c(=O)c(-c3ccc(F)c(Cl)c3)c(Oc3cccc4ccccc34)n(CC#N)c2=O)c1 [Compound I-029] | – | < 10 nM | – | – | < 100 nM
32 | N#CCn1c(CCC2(O)CCC2)c(-c2ccc(F)c(C(F)F)c2)c(=O)n(-c2cncc(C#N)c2)c1=O [Compound I-424] | < 100 nM | < 10 nM | – | – | –
33 | N#CCn1c(-c2ccc(F)nc2)c(-c2ccc(F)c(Cl)c2)c(=O)n(-c2cncc(Cl)c2)c1=O [Compound I-385] | < 100 nM | < 10 nM | – | – | –
34 | N#CCn1c(N2CC[C@](O)(C(F)F)C2)c(-c2ccc(F)c(Cl)c2)c(=O)n(-c2cncc(Cl)c2)c1=O (single isomer, unassigned) [Compound I-239] | – | 0.63 nM | – | 3.15 nM | –
35 | Cc1cncc(-n2c(=O)c(Cc3cc(F)c(F)c(F)c3)c(-c3cccc(C#N)c3)n(CC#N)c2=O)c1 [Compound I-012] | – | 10 to 100 nM | < 100 nM | – | –
36 | Cc1cncc(N2C(=O)N(CC#N)CC3(CCOc4ccc(Cl)cc43)C2=O)c1 (racemic) [Compound I-088] | – | 71 nM | – | 97.2 nM | –
37 | N#CCn1c(N2CC3(C2)CC(F)(F)C3)c(-c2ccc(F)c(C(F)F)c2)c(=O)n(-c2cncc(Cl)c2)c1=O [Compound I-339] | < 100 nM | < 10 nM | – | – | –
38 | N#CCn1c(N2CC(O)(c3ncc(F)cn3)C2)c(-c2ccc(F)c(Cl)c2)c(=O)n(-c2cncc(Cl)c2)c1=O [Compound I-234] | – | 1.2 nM | – | 6.6 nM | –
39 | Cc1cc(-n2c(=O)c(Cc3cc(F)c(F)c(F)c3)c(N3Cc4ccccc4C3)n(CC#N)c2=O)cc(=O)[nH]1 [Compound I-159] | – | 10 to 100 nM | 100 to 1000 nM | – | –
40 | Cc1cncc(-n2c(=O)c(-c3ccc(F)c(Cl)c3)c(N3Cc4cccnc4C3)n(CC#N)c2=O)c1 [Compound I-075] | – | < 10 nM | – | – | < 100 nM
41 | N#CCn1c(N2C[C@@H]3C[C@H]2CO3)c(-c2ccc(F)c(C(F)F)c2)c(=O)n(-c2cncc(Cl)c2)c1=O [Compound I-343] | < 100 nM | < 10 nM | – | – | –
42 | C[C@@H](C#N)n1c(N2CC[C@](O)(C(F)F)C2)c(-c2ccc(F)c(Cl)c2)c(=O)n(-c2cncc(Cl)c2)c1=O (single isomer, unassigned) [Compound I-431] | < 100 nM | < 10 nM | – | – | –
43 | N#CCn1c(N2CC3(CCOC3)C2)c(CCCC(F)(F)F)c(=O)n(-c2cncc(Cl)c2)c1=O [Compound I-365] | 100 to 1000 nM | 10 to 100 nM | – | – | –
44 | N#CCn1c(N2CC3(C2)CC(F)(F)C3)c(-c2ccc(F)c(Cl)c2)c(=O)n(-c2cc(C(F)(F)F)cnn2)c1=O [Compound I-229] | < 100 nM | < 10 nM | – | – | –
45 | CN1C[C@@H]2CN(c3c(Cc4cc(F)c(F)c(F)c4)c(=O)n(Cc4ncn(C)n4)c(=O)n3CC#N)C[C@@H]2C1 [Compound I-003] | – | > 100 nM | – | – | 1000 to 5000 nM
46 | Cc1cncc(-n2c(=O)c(Oc3cc(F)c(F)c(F)c3)c(-c3cc4ccccc4s3)n(CC#N)c2=O)c1 [Compound I-018] | – | < 10 nM | – | – | < 100 nM
47 | N#CCn1c(N2CC3(C2)CC(F)(F)C3)c(-c2cc(F)c(F)c(C#N)c2)c(=O)n(-c2cncc(Cl)c2)c1=O [Compound I-366] | < 100 nM | < 10 nM | – | – | –
48 | N#CCn1c(N2CC3(C2)CC(F)(F)C3)c(-c2ccc(F)c(Cl)c2)c(=O)n(-c2onc3cc(F)ccc23)c1=O [Compound I-304] | < 100 nM | < 10 nM | – | – | –
49 | Cc1cncc(-n2c(=O)c(Cc3cc(F)c(F)c(F)c3)c(-c3ccc(C)c(C)c3)n(C(C)C#N)c2=O)c1 (racemic) [Compound I-057] | – | 9.8 nM | – | 29 nM | –
50 | N#CCn1c(N2CCC3(CCC(=O)N3)C2)c(-c2ccc(F)c(Cl)c2)c(=O)n(-c2cncc(Cl)c2)c1=O (racemic) [Compound I-061] | – | < 10 nM | – | – | 100 to 1000 nM
